Tests used:
[1] = target: T1, hNTCP (Homo sapiens, UniProt Q14973); test: MyrB^atto binding competition assay by FACS in HuH7^hNTCP cells; conditions: 500 μM
T1 construct: host or cells: HuH7
T1 sequence (Q14973 1-349): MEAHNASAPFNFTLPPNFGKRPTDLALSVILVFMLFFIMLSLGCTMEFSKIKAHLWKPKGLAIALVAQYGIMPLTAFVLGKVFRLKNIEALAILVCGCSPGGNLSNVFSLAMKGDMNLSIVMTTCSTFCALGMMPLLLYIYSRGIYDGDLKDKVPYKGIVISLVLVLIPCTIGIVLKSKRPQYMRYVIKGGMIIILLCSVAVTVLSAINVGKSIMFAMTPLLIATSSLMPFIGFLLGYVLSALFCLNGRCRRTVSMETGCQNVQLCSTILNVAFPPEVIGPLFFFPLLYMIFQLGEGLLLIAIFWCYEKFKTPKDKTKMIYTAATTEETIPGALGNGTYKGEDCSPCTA
Experimental: Binding was quantified by FACS analysis.
(§1) Cells were washed (PBS/1% BSA), trypsinized, and suspended in Krebs-Henseleit-Buffer. Flow cytometry was performed on a FACS Canto II (BD Bioscience, Heidelberg, Germany); FlowJo v7.61 software (Treestar, Ashton, USA) was used for analysis. Compensation was performed using BD Compbeats (BD Bioscience, Heidelberg, Germany).

[2] = system: HBV; test: HBV infection of differentiated HepaRG and HuH7^hNTCP cells in presence of NTCP substrates (secreted HBeAg); assay type: cell-based; conditions: for Reduction of HBV infection (HBeAg secretion): 5 μM; for Inhibition of HBV infection as shown by HBeAg secretion: 50 μM and 500 μM
[3] = target: T2, mNtcp (Mus musculus, UniProt O08705); test: MyrB^atto binding to HepG2^mNtcp cells (FACS)
T2 construct: expressed in transfected cells; host or cells: HepG2
T2 sequence (O08705 1-362): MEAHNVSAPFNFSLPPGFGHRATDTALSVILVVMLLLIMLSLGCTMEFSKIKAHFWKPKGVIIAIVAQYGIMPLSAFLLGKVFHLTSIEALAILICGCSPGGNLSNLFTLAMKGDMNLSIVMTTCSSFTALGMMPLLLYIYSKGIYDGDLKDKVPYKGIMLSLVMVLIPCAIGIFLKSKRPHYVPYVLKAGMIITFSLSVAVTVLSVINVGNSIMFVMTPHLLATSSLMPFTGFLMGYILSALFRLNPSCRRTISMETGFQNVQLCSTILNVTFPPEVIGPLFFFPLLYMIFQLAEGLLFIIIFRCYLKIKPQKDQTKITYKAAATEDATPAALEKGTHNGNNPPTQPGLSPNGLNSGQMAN
Experimental: as §1
(§2) Taking advantage of the fluorescence of the ratNTCP-eGFP fusion, we confirmed co-localisation of the MyrB/rNtcp-complex in microvilli.

[4] = target: T3, ratNTCP-eGFP (Rattus norvegicus, UniProt P26435); test: MyrB^atto binding to HepG2 ratNTCP-eGFP cells (confocal microscopy)
T3 construct: expressed in transfected cells; host or cells: HepG2
T3 sequence (P26435 1-362): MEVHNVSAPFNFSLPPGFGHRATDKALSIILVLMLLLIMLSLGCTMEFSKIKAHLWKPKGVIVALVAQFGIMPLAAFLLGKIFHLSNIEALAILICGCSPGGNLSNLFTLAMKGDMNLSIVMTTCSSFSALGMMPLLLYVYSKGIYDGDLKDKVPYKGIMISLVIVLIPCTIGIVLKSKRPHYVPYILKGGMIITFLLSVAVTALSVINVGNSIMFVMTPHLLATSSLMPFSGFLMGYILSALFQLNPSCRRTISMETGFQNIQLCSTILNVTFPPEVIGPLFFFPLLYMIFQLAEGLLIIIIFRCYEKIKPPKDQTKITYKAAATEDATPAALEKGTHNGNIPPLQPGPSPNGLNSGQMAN
Experimental: Note the co-localisation of hNTCP/MyrB^atto in microvilli.
Cells were washed again (3×PBS/2% BSA), fixed with PFA, washed with PBS/1 ug/ml Hoechst 3342 and mounted (FluoromountG). NTCP immune staining was achieved after permeabilisation (10 min/RT) with TritonX 100 using a α-SCL10A1/NTCP antibody (Sigma, Germany) diluted 1:750 in PBS/2% BSA (18 h at 4° C.). A polyclonal rabbit antiserum H863 was used for HBcAg-staining, a polyclonal rabbit antiserum for MRP-2 detection, patient-derived serum (M. Roggendorf, Essen) for HδAg. As secondary antibodies goat anti-rabbit or -human, labelled with either AlexaFluor488 or AlexaFluor546 (Invitrogen) was used. Actin staining was performed by the addition of atto633-labelled Phalloidin diluted 1:2000 (ATTO-Tec, Germany) to the second staining step. Images were taken on a Leica DM IRB or Leica SP2 confocal microscope (Leica, Germany), image analysis was performed using ImageJ.
as §2

Molecule | Interference with MyrB^atto (preS) binding [1] | Reduction of HBV infection (HBeAg secretion) [2] | Inhibition of HBV infection as shown by HBeAg secretion [2] | Binding to mNtcp-expressing cells [3] | Binding to rat NTCP-eGFP-expressing cells [4]
C[C@H](CCC(=O)NCCS(=O)(=O)O)[C@H]1CC[C@H]2[C@@H]3[C@H](O)C[C@@H]4C[C@H](O)CC[C@]4(C)[C@H]3C[C@H](O)[C@]12C [TC, Taurocholate] | profoundly interfered with preS-binding | – | – | – | –
C[C@H](CCC(=O)NCCS(=O)(=O)O)[C@H]1CC[C@H]2[C@@H]3[C@H](O)C[C@@H]4C[C@H](O)CC[C@]4(C)[C@H]3CC[C@]12C [TCDC, Taurochenodeoxy-Cholate] | profoundly interfered with preS-binding | Marginal reduction | inhibited HBV-infection | – | –
C[C@H](CCC(=O)NCCS(=O)(=O)O)[C@H]1CC[C@H]2[C@@H]3CC[C@@H]4C[C@H](O)CC[C@]4(C)[C@H]3C[C@H](O)[C@]12C [TDC, Taurodeoxycholate] | profoundly interfered with preS-binding | Marginal reduction | inhibited HBV-infection | – | –
MyrB^atto: atto-dye-labeled MyrB (atto488/atto565 NHS-ester coupled to lysine residues) | – | – | – | specific and competable binding | specific and competable binding

— patent US12370237B2, “Lipopeptides for use in treating liver diseases and cardiovascular diseases” (RUPRECHT-KARLS-UNIVERSITAET HEIDELBERG, priority 2012, dated 2025)
